Measurements reported in US9023623B2, “Method for preparing of allicin injection and low-temperature continuous stirring ultrafiltration device thereof” (Xinjiang Ailexin Pharmaceutical Co., Ltd., priority 2010, dated 2015).
Values after ≈ are worked out from the molar mass of the structure shown.

What was measured:
[1] = system: Methicillin Resistant Staphylococcus Aureus (MRSA); assay: Anti-pathogenic microorganism test; assay type: cell-based
Acinetobacter = assay: Anti-pathogenic microorganism test; assay type: cell-based
Escherichia coli = assay: Anti-pathogenic microorganism test; assay type: cell-based
Helicobacter pylori = assay: Anti-pathogenic microorganism test; assay type: cell-based
Candida albicans = assay: Anti-pathogenic microorganism test; assay type: cell-based
[2] = room temperature; background description; cited from earlier work
[3] = background description; cited from earlier work

Structure (SMILES): C=CCS[S+]([O-])CC=C (stereo not shown) [Allicin, thio-2-propene-1-sulfinic acid S-allyl ester]
- bactericidal activity [1]: obviously bactericidal activity
- MIC ([1]; Staphylococcus aureus): 10 to 30 µg/mL (≈ 61.6 to 185 µM)
- bactericidal activity (Acinetobacter): obviously bactericidal activity
- bactericidal activity (Escherichia coli): obviously bactericidal activity
- MIC (Helicobacter pylori): 10 to 30 µg/mL (≈ 61.6 to 185 µM)
- bactericidal activity (Helicobacter pylori): obviously bactericidal activity
- bactericidal activity (Candida albicans): obviously bactericidal activity
- sensitivity to allicin (Candida albicans): sensitive
- solubility in water [2]: slightly soluble in water
- decomposition when exposed to air [3]: decomposes and deteriorates within a few hours
